In article PMC10945555, “Improving Activity of New Arylurea Agents against Multidrug-Resistant and Biofilm-Producing Staphylococcus epidermidis” (ACS Medicinal Chemistry Letters, 2024):

Tests used:
[1] = test system: H9c2 cells; assay: Cytotoxicity, MTT assay, cardiomyocytes; type: cell-based; settings: Rattus norvegicus, 24 h, n = 3
Outline: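 Rat H9c2 cardiomyocytes (DMEM) and human BJ fibroblasts (EMEM), both with 10% serum, were exposed to compound for 24 h at 37°C. MTT (5 mg/mL) was then added for 3 h and DMSO-dissolved formazan read at 570 nm as percent of untreated control. IC50 came from non-linear regression over three experiments.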

[2] = test system: BJ cells; assay: Cytotoxicity, MTT assay, skin fibroblasts; type: cell-based, human
Description: The following cell models were used in the research: rat cardiomyocytes (H9c2 line) and human skin fibroblasts (BJ line). All cell lines used in the work are commercially available and were purchased from ATCC banks (the American Type Culture Collection, Manassas, VI, USA). Cell cultures were carried out in an incubator under standard conditions (37°C, 5% CO 2).
Culture media (Dulbecco's Modified Eagle's Medium -DMEM (H9c2) and Eagle's Minimum Essential Medium-EMEM (BJ) were supplemented with 10% bovine serum and a 1% mixture of penicillin and streptomycin antibiotics. […]
doxorubicin (a cytotoxic drug) were used as reference and positive control, respectively. […]
solution (5 mg/mL) was transferred into culture medium of incubated cells. After 3 h, once dark crystals of formazan were produced in cells, medium was aspirated and 100 μ L of DMSO was added to dissolve formazan. Absorbance of DMSO solution was read on a multiwell plate reader (Spectra Max iD3, Molecular Devices) at 570 nm. In order to determine viability, absorbance of experimental wells was divided by absorbance of contro l well (not treated) and multiplied by 100 (%). Three separate experiments were performed. IC 50 was calculated using non-linear regression method in OriginPro software. […]

[3] = test system: biofilm-producing Staphylococcus epidermidis strains; assay: Inhibition of biofilm formation (MBIC, resazurin); type: cell-based
Description: After 24 hours incubation each well of
concentration of 4 mg/mL was added. […]

[4] = test system: biofilm-producing Staphylococcus epidermidis strains; assay: Biofilm eradication (MBEC Assay Kit); type: cell-based
[5] = S. epidermidis ATCC 35984 (Table S4)

O=C(Nc1cccc(Cl)c1)NC1CCN(CCC(Oc2ccc(C(F)(F)F)cc2)c2cccs2)CC1 (stereo not drawn) [Compound 25]
15.6 µg/mL: MBIC50 ([3]; Table S4 strains) | MBIC ([3]; clinical strain 1 (Table S4)) | MBIC ([3]; clinical strain 5 (Table S4)) | MBIC ([3]; clinical strain 6 (Table S4)) | MBIC ([3]; clinical strain 16 (Table S4)) | MBIC ([3]; clinical strain 17 (Table S4)) | MBIC ([3]; clinical strain 19 (Table S4)) | MBIC ([3]; clinical strain 28 (Table S4)) | MBIC ([3]; clinical strain 29 (Table S4)) | MBIC ([3]; clinical strain 36 (Table S4)) | MBIC ([3]; clinical strain 40 (Table S4)) | MBIC ([3]; clinical strain 43 (Table S4)) | MBIC ([3]; clinical strain 44 (Table S4)) | MBIC ([3]; clinical strain 47 (Table S4)) | MBIC ([3]; clinical strain 49 (Table S4)) | MBIC ([3]; clinical strain 66 (Table S4)) | MBIC ([3]; clinical strain 74 (Table S4)) | MBIC ([3]; clinical strain 75 (Table S4)) | MBEC ([4]; clinical strain 6 (Table S4)) | MBEC ([4]; clinical strain 17 (Table S4)) | MBEC ([4]; clinical strain 19 (Table S4)) | MBEC ([4]; clinical strain 44 (Table S4)) | MBEC ([4]; clinical strain 47 (Table S4)) | MBEC ([4]; clinical strain 49 (Table S4)) | MBEC ([4]; clinical strain 66 (Table S4)) | MBEC ([4]; clinical strain 74 (Table S4))
3.9 µg/mL: MBIC ([3]; clinical strain 8 (Table S4)) | MBIC ([3]; clinical strain 23 (Table S4)) | MBEC ([4]; clinical strain 13 (Table S4)) | MBEC ([4]; clinical strain 30 (Table S4)) | MBEC ([4]; clinical strain 39 (Table S4))
visible in sector F and G: visible change in the appearance of the cells ([2]; 18 hours, sector F 25 µM, G 50 µM, tested 2.5-50 µM)
26.9 µg/mL: IC50 [1]
7.8 µg/mL: MBIC [3, 5] | MBIC ([3]; clinical strain 25 (Table S4, Figure 2)) | MBIC ([3]; clinical strain 73 (Table S4)) | MBIC ([3]; clinical strain 78 (Table S4)) | MBIC ([3]; clinical strain 79 (Table S4)) | MBEC [4, 5] | MBEC ([4]; clinical strain 8 (Table S4)) | MBEC ([4]; clinical strain 23 (Table S4)) | MBEC ([4]; clinical strain 25 (Table S4)) | MBEC ([4]; clinical strain 73 (Table S4)) | MBEC ([4]; clinical strain 78 (Table S4)) | MBEC ([4]; clinical strain 79 (Table S4))
1.6 µg/mL: MBIC ([3]; clinical strain 13 (Table S4)) | MBIC ([3]; clinical strain 30 (Table S4)) | MBIC ([3]; clinical strain 39 (Table S4))
31.25 µg/mL: MBIC90 ([3]; Table S4 strains) | MBIC ([3]; clinical strain 2 (Table S4)) | MBIC ([3]; clinical strain 3 (Table S4)) | MBIC ([3]; clinical strain 4 (Table S4)) | MBIC ([3]; clinical strain 9 (Table S4)) | MBIC ([3]; clinical strain 11 (Table S4)) | MBIC ([3]; clinical strain 12 (Table S4)) | MBIC ([3]; clinical strain 15 (Table S4)) | MBIC ([3]; clinical strain 21 (Table S4)) | MBIC ([3]; clinical strain 22 (Table S4)) | MBIC ([3]; clinical strain 26 (Table S4)) | MBIC ([3]; clinical strain 27 (Table S4)) | MBIC ([3]; clinical strain 33 (Table S4)) | MBIC ([3]; clinical strain 35 (Table S4)) | MBIC ([3]; clinical strain 37 (Table S4)) | MBIC ([3]; clinical strain 41 (Table S4)) | MBIC ([3]; clinical strain 42 (Table S4)) | MBIC ([3]; clinical strain 45 (Table S4)) | MBIC ([3]; clinical strain 46 (Table S4)) | MBIC ([3]; clinical strain 51 (Table S4)) | MBIC ([3]; clinical strain 55 (Table S4)) | MBIC ([3]; clinical strain 58 (Table S4)) | MBIC ([3]; clinical strain 59 (Table S4)) | MBIC ([3]; clinical strain 65 (Table S4)) | MBIC ([3]; clinical strain 67 (Table S4)) | MBIC ([3]; clinical strain 70 (Table S4)) | MBEC50 ([4]; Table S4 strains) | MBEC90 ([4]; Table S4 strains) | MBEC ([4]; clinical strain 1 (Table S4)) | MBEC ([4]; clinical strain 2 (Table S4)) | MBEC ([4]; clinical strain 3 (Table S4)) | MBEC ([4]; clinical strain 4 (Table S4)) | MBEC ([4]; clinical strain 7 (Table S4)) | MBEC ([4]; clinical strain 9 (Table S4)) | MBEC ([4]; clinical strain 11 (Table S4)) | MBEC ([4]; clinical strain 12 (Table S4)) | MBEC ([4]; clinical strain 15 (Table S4)) | MBEC ([4]; clinical strain 16 (Table S4)) | MBEC ([4]; clinical strain 21 (Table S4)) | MBEC ([4]; clinical strain 22 (Table S4)) | MBEC ([4]; clinical strain 26 (Table S4)) | MBEC ([4]; clinical strain 27 (Table S4)) | MBEC ([4]; clinical strain 28 (Table S4)) | MBEC ([4]; clinical strain 29 (Table S4)) | MBEC ([4]; clinical strain 33 (Table S4)) | MBEC ([4]; clinical strain 35 (Table S4)) | MBEC ([4]; clinical strain 36 (Table S4)) | MBEC ([4]; clinical strain 37 (Table S4)) | MBEC ([4]; clinical strain 40 (Table S4)) | MBEC ([4]; clinical strain 41 (Table S4)) | MBEC ([4]; clinical strain 42 (Table S4)) | MBEC ([4]; clinical strain 43 (Table S4)) | MBEC ([4]; clinical strain 45 (Table S4)) | MBEC ([4]; clinical strain 46 (Table S4)) | MBEC ([4]; clinical strain 51 (Table S4)) | MBEC ([4]; clinical strain 55 (Table S4)) | MBEC ([4]; clinical strain 58 (Table S4)) | MBEC ([4]; clinical strain 59 (Table S4)) | MBEC ([4]; clinical strain 65 (Table S4)) | MBEC ([4]; clinical strain 67 (Table S4)) | MBEC ([4]; clinical strain 70 (Table S4)) | MBEC ([4]; clinical strain 75 (Table S4))
13.2 µg/mL: IC50 ([2]; Homo sapiens, MTT, 24 h, n = 3)
